In one assay the target is T1, TPH1 (Homo sapiens, UniProt P17752).
T1 construct: doubly truncated human TPH1 (ΔNH102-ΔCOOH402); made in house; host or cells: E. coli BL21(DE3)
The assay can be described thus: Differential scanning fluorimetry (DSF) thermal stability assay. The format is binding. To be noted: DSF, 50 μM compound. The method, then:
A fluorescence-based thermal stability assay (differential scanning fluorimetry, DSF) was used for testing the effects of HDIs on the thermal stability of TPH1.
For initial high throughput screening (HTS), compounds were prepared at a concentration of 10 mM (in some cases, 5 mM) in 100% DMSO. Initial HTS screening was performed on TPH1 with and without compounds using a LightCycler 480 Real-Time PCR System (Roche Applied Science). TPH1 was diluted to 0.075 mg/mL in 50 mM Tris pH 8.0, 200 mM NaCl, 0.5 mM TCEP, and 5% glycerol with 5x SYPRO Orange. Compounds were added to a final concentration of 50 μM. Controls with 0.5% DMSO were performed on each 384-well microplate. Unfolding curves were recorded from 20 to 95 °C at a scan rate of 2 °C/min and monitored at excitation = 465 nm and emission = 610 nm. Selected hits were validated further by serial dilution from 250 μM to 122 nM, keeping the DMSO concentration constant at 2%.
DSF data were analyzed using HTSDSF Explorer.[55] Melting temperature (Tm) was calculated from the maximum value of the first derivative of the unfolding curve. ΔTm (Tm with compound–averaged Tm in DMSO controls) was plotted for all validated curves and a threshold of 2 °C was set (typically, cutoff at ΔTm = 3-fold the SD of the Tm of the DMSO control).
Preliminary binding constants (KD) were calculated by fitting data to the equation [drawing 1] where ΔH0 is the enthalpy of the unfolding of the protein in the presence of ligand ([L]), and R is the gas constant.
For orientation: In DSF a fluorescence change marks the thermal transition of the protein.

For another assay, the target named is T2, human TPH2 (Homo sapiens, UniProt Q8IWU9).
T2 construct: Full-length human TH isoform 1 (TH1), human PAH, human TPH2, and doubly truncated human TPH1; MBP (cleaved yes); made in house; host or cells: E. coli BL21(DE3)
T2 sequence (Q8IWU9 1-490): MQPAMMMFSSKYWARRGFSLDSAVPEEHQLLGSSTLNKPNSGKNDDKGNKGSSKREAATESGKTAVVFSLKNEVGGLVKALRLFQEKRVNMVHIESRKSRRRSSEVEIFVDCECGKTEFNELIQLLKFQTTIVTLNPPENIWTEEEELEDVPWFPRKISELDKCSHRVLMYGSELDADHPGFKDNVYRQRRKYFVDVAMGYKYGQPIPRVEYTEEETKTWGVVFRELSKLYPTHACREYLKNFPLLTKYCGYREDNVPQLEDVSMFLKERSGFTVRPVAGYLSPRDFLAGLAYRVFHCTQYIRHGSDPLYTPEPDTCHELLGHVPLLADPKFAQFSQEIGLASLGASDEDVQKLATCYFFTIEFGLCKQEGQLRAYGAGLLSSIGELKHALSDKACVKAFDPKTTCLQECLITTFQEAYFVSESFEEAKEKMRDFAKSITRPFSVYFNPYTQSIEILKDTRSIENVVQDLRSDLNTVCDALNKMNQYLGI
The assay can be described thus: TPH2 enzyme activity assay (HPLC). It counts as biochemical. To be noted: best-fit IC50 (± SE), nonlinear regression; N.A. = no activity.

Another assay deals with T3, human TH isoform 1 (TH1) (Homo sapiens, UniProt P07101).
T3 construct: Full-length human TH isoform 1 (TH1); His6-ZZ fusion partner (one of the two preparations only) (cleaved yes); made in house; host or cells: E. coli BL21(DE3) pLysS (pET3a) or BL21 CodonPlus (pET-ZZ-1a)
Briefly: TH enzyme activity assay (HPLC, L-DOPA). The format is biochemical. To be noted: best-fit IC50 (± SE), nonlinear regression; N.A. = no activity. The method, then: (§1) The activity of purified PAH, TH, TPH1, and TPH2 was measured using high-performance liquid chromatography (HPLC) as previously described.[50],[56],[57]
TH activities were performed in a standard reaction mixture containing 40 mM Hepes (pH 7.0), 0.1 mg/mL catalase, 10 μM ferrous ammonium sulfate, and 50 μM L-Tyr. Compounds were incubated with TH (0.01 mg/mL) in the reaction mixture for 10 min on ice. The enzymatic reaction was initiated by adding 200 μM BH4 and 2 mM DTT (final concentrations) and stopped by precipitation with 2% (v/v) acetic acid in ethanol after 5 min at 37 °C. The product, L-DOPA, was quantified by HPLC utilizing a fluorescence monitor set at 281 and 314 nm for excitation and emission, respectively.
GraphPad Prism (version 10; La Jolla, CA) was used for analyzing the enzyme inhibition data.

For a further assay, the system named is HDAC 1. As to conditions: human recombinant HDAC, cited from earlier work.
In assay [1] the target is T4, doubly truncated human TPH1 (ΔNH102-ΔCOOH402) (Homo sapiens, UniProt P17752).
T4 construct: doubly truncated human TPH1 (ΔNH102-ΔCOOH402); made in house; host or cells: E. coli BL21(DE3)
The assay can be described thus: TPH1 enzyme activity assay (HPLC, 5-OH-Trp). The format is biochemical. To be noted: best-fit IC50 (± SE), nonlinear regression; N.A. = no activity.

The next assay addresses T5, endogenous PAH (Homo sapiens, UniProt P00439).
T5 construct: increased melting temperatures (ΔTm) of endogenous PAH; endogenous in cells; host or cells: HepG2
T5 sequence (P00439 1-452): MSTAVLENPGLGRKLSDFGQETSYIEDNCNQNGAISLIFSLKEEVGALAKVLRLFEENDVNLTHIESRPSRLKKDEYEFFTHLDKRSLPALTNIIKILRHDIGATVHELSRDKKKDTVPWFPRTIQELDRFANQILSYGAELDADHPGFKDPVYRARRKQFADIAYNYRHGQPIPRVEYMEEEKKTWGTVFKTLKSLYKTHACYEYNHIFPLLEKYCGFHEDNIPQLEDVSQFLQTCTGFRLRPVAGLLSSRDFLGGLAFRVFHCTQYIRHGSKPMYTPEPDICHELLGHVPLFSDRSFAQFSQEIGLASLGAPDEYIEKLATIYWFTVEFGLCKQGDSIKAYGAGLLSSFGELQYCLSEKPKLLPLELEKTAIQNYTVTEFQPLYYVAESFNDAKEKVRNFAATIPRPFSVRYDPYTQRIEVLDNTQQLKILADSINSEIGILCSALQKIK
Briefly: Cellular thermal shift assay (CETSA) in HepG2 cells. The format is cell-based. As to conditions: 50 μM compound, 1 h, vs DMSO. The method, then: Then, cells were washed, harvested using trypsin, and pelleted by centrifugation. The pellet was washed twice with PBS supplemented with complete EDTA-free protease inhibitor cocktail (Roche) and divided into 14 aliquots of 35 μL containing 800,000 cells. Cells were then frozen in liquid nitrogen and thawed at 25 °C three times, and each aliquot was heated to a defined temperature by applying a gradient between 39 °C and 69 °C in a thermocycler (peQSTAR, PeQlab; 16-well gradient, 54 °C ± 15 °C). After 3 min incubation, aliquots were snap frozen in liquid nitrogen and thawed at 25 °C. Cell lysates were centrifuged at 20,000 g (4 °C) for 20 min. Supernatants were mixed with 5x loading buffer, heated to 70 °C for 5 min and analyzed by Western blotting. Chemoluminescence signals were recorded with a FusionSL, Vilber Lourmat (peQlab) and quantified using FusionCapt Advance FX7 16.01c software. Calculation of ΔTm was conducted using the Boltzmann sigmoidal model in GraphPad prism 7.01.
Cell lysates used for Western blot analysis were prepared as described in the Methods section (Cellular Thermal Shift Assay). […] Chemoluminescence signals were recorded with an FusionSL, Vilber Lourmat (peQlab) and quantified using FusionCapt Advance FX7 16.01c software.

In a further assay the test system is HDAC 6. As to conditions: human recombinant HDAC; ref 6 (10.1002/cmdc.201800238); cited from earlier work.
The target of a further assay is T6, human PAH (Homo sapiens, UniProt P00439).
T6 construct: Full-length human TH isoform 1 (TH1), human PAH, human TPH2, and doubly truncated human TPH1; made in house; host or cells: E. coli TB1
T6 sequence (P00439 1-452): T5 sequence (P00439 1-452)
Briefly: PAH enzyme activity assay (HPLC, L-Tyr). It counts as biochemical.

The subject of another assay is HDAC 8. As to conditions: human recombinant HDAC, cited from earlier work.
For assay [2], the system named is AAAHs (PAH, TH, TPH1, TPH2). Briefly: Enzyme activity assays, statement over all four AAAHs. It counts as biochemical, human. The method, then:
as §1
TPH1 enzymatic activity assays were performed with the selected hits from the DSF screening in the presence and absence of 50 μM of each compound. The final concentration of DMSO was 0.5% (v/v), and control experiments used 0.5% DMSO in the absence of ligand. Assays were performed in a standard reaction mixture containing 40 mM Hepes pH 7.0, 200 mM NaCl, 0.1 mg/mL catalase, 0.5 mg/mL BSA, 10 μM ferrous ammonium sulfate, and 30 μM L-tryptophan (L-Trp). Compounds were incubated with TPH1 (0.02 mg/mL) in the reaction mixture for 10 min on ice. The enzymatic reaction was initiated by adding 200 μM BH4 and 2 mM DTT (final concentrations) and stopped by precipitation with 2% (v/v) acetic acid in ethanol after 3 min at 37 °C. The product, 5-hydroxy-tryptophan (5-OH-Trp), was quantified by HPLC utilizing a fluorescence monitor set at 302 and 350 nm for excitation and emission, respectively. […]. […]
PAH activities were performed in a standard reaction mixture containing 100 mM Hepes (pH 7.0), 0.04 mg/mL catalase, 0.05% BSA, 10 μM ferrous ammonium sulfate, and 1 mM phenylalanine (Phe). […] The product, L-Tyrosine (L-Tyr), was quantified by HPLC utilizing a fluorescence monitor set at 274 and 304 nm for excitation and emission, respectively. […]

The test system of the next assay is dopamine transporter. Details: method as in PMID 21785940. As to conditions: neuroblastoma cells; cited from earlier work.
In the next assay the test system is serotonin transporter. Details: method as in PMID 21785940. As to conditions: neuroblastoma cells; cited from earlier work.

Several values for one entry are separate records, joined by “and”; a condition that tells them apart may be missing. Equal values may be shown once. Read-outs that look alike come from different tables or passages of the source.

This is an account of results in PMC11587510, “Aromatic Amino Acid Hydroxylases as Off-Targets of Histone Deacetylase Inhibitors” (ACS Chemical Neuroscience, 2024).

For orientation: IC50 means the midpoint of a concentration-inhibition curve. One may read the ΔTm as the shift of the melting midpoint relative to a reference.

T1 sequence (P17752 102-402): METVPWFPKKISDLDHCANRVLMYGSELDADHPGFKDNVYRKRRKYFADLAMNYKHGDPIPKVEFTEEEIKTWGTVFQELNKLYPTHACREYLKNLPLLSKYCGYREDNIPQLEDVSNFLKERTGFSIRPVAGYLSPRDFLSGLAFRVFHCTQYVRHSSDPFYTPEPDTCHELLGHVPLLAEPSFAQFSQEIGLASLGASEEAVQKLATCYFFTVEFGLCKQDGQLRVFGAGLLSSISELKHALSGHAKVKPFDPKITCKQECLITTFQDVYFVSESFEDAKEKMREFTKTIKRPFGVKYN
T4 sequence (P17752 102-402, stated change not applied): as the sequence (P17752 102-402) above
T3 sequence (P07101 1-497 isoform P07101-3): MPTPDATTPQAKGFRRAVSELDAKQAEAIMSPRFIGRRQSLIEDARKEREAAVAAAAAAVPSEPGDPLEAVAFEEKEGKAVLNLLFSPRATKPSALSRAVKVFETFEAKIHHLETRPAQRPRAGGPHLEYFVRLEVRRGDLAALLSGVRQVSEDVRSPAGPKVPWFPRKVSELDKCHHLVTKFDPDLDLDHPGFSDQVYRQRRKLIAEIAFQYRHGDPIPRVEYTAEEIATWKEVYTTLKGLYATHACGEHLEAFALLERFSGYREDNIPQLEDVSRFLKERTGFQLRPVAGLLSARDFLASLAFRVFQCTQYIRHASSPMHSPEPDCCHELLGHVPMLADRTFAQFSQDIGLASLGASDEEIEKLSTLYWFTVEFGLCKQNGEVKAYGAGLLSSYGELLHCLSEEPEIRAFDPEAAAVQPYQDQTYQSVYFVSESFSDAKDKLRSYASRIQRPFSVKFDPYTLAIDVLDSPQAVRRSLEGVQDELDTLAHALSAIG

As to `O=C(/C=C/c1ccccc1Oc1ccc(Cl)cc1)NO` [TB57, (2E)-3-[2-(4-Chlorophenoxy)phenyl]-N-hydroxy-2-propenamide], the “ΔTm (°C) ± SD (°C), primary screen” value on TPH1 (vs averaged Tm of 0.5% DMSO controls) is -3.4 ± 0.1 °C. For the same compound, the IC50 was 195 µM against human TPH2; 13.4 ± 2.4 µM with HDAC 1 (ref 6 (10.1002/cmdc.201800238)); 49.6 µM in assay [1]; 11.4 ± 2.5 µM in the assay with HDAC 6; 1.55 µM and 1.6 µM on human PAH (best-fit IC50 (± SE), nonlinear regression, N.A. = no activity, read-out: IC50 (μM) PAH); 0.15 ± 0.03 µM in the assay on HDAC 8 (ref 6 (10.1002/cmdc.201800238)). Moreover, the “IC50 (μM) TH” value against human TH isoform 1 (TH1) was “no inhibition”. Besides, the “ΔTm of endogenous PAH (CETSA)” value on endogenous PAH turned out to be 4.8 °C. In addition, the “selectivity toward PAH in comparison to TPH1” value on human PAH (from IC50 values of Table 2) came to 30 fold. Moreover, the “selectivity toward PAH in comparison to TPH2” value on human PAH (from IC50 values of Table 2) was 125 fold.
Turning to `Nc1ccccc1NC(=O)c1ccc(CNc2nccc(-c3cccnc3)n2)cc1` [mocetinostat, reference compound], at TPH1 (0.075 mg/mL TPH1, 0.5% DMSO, three independent measurements (a: duplicates)), the “Tm (°C) ± SD (°C), primary screen” value was determined as 54.5 ± 0.2 °C. The ΔTm at 50 µM on TPH1 (vs averaged Tm of 0.5% DMSO controls, read-out: ΔTm (°C) ± SD (°C), primary screen) is -0.8 °C. In assay [2], the “inhibitory activity against all the AAAHs” value was “completely inactive”. The figures for the IC50 with HDAC 1 (ref 2 (PMID: 23829483)) and in the assay with HDAC 8 (ref 2 (PMID: 23829483)) were 0.098 ± 0.055 µM and 35 ± 4.4 µM, respectively.
As to `CC(/C=C/C(=O)NO)=C\[C@@H](C)C(=O)c1ccc(N(C)C)cc1` [trichostatin A], the “increase of dopamine transporter expression” value in the assay on dopamine transporter is 45 fold. For the same compound, the “increase of serotonin transporter expression” value in the assay with serotonin transporter is reported as 15 fold.
